Data as given in US9643941B2, “2,2′-tandem dithiazole compound, preparation method therefor, and use thereof” (SHANGHAI INSTITUTE OF MATERIA MEDICA, CHINESE ACADEMY OF …, priority 2014, dated 2017).
Like-named read-outs stand apart in the source and are kept apart here.

Columns and labels:
[1] = system: human source multiple myeloma cell line 8266; experiment: Anti-tumor activity test in cellular level (MTT); details: for IC50: Homo sapiens, Multiple myeloma cell, 72 h, read-out: IC50 on human multiple myeloma cell line 8266
[2] = system: EAE mouse model; experiment: Drug efficacy in EAE mouse model; format: in vivo
Protocol: The activity of the compound as a histone deacetylase inhibitor in the treatment of EAE was tested by drug efficacy tests for compounds in the EAE mouse model.
Antigen MOG35-55 ([…]) was added with complete Freund's adjuvant (comprising 5 mg/ml of inactivated Mycobacterium tuberculosis) to be emulsified. 8-week aged female C57BL/6 mouse was injected subcutaneously with 200 μg of emulsified MOG35-55 antigen, while 200 ng of pertussis toxin was injected into each mouse. The day of induction was day 0. On day 2, 200 ng of pertussis toxin was further injected to each mouse. The symptoms of the mice were scored and recorded daily. The scoring rules were as follows,
0 point: normal, asymptomatic
3 points: the mouse was paralysis of hind limbs, and the mouse was loss of mobility.
4 points: the mouse was weakness or paralysis of forelimbs.
5 points: the mouse was dead or dying
2. Materials for the Test: • EAE mouse: Shanghai Slac Laboratory Animal Co., Ltd.; • Antigen MOG35˜55: GL Biochem (Shanghai) Ltd.;
The drug was directly added with the CMC—Na, ground and ultrasonic suspended into a uniform state. The dose was 10 mg/kg, twice a day by intragastric administration. The control group was directly administrated with PBS.

[3] = molecular target: Human source HDAC4 (Homo sapiens, UniProt P56524); experiment: Inhibition activity against histone deacetylase 4 (fluorescence, AMC substrate); format: biochemical
Human source HDAC4, sequence (P56524 whole entry): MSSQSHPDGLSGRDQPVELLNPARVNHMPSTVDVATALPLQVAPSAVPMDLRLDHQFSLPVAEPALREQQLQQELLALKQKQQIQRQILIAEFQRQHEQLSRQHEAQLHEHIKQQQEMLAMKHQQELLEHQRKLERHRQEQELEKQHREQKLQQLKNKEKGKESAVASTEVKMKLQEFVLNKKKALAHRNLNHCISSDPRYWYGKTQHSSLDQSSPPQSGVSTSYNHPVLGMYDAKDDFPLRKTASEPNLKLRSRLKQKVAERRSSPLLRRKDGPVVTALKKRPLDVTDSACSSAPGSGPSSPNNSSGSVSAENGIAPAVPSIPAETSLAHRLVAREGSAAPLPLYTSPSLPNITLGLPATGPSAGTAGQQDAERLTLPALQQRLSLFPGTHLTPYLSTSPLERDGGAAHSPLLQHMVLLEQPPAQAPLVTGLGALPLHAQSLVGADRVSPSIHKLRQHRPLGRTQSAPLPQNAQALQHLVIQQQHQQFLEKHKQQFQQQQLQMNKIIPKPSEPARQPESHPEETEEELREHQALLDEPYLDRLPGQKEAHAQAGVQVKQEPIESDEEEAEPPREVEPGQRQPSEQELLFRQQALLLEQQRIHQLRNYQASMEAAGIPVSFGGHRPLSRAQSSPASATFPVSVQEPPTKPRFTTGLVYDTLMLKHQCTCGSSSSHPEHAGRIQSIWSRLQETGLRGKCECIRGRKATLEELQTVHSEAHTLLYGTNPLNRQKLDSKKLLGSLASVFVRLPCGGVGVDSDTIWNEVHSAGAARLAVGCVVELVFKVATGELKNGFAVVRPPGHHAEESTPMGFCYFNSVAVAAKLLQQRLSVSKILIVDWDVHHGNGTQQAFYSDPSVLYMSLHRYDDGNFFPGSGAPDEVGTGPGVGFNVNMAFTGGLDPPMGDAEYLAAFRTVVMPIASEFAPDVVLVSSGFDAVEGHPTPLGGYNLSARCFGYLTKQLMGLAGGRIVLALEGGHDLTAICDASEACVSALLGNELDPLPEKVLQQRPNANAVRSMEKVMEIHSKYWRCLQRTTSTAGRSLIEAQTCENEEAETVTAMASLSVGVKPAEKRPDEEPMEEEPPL
Protocol: The test was carried out to show the inhibition activity of the compounds in this patent application against human source histone deacetylases 1, 3, 4, 6.
(§1) 2. Materials for the Test: • Human source HDAC1, HDAC3, HDAC4, and HDAC6 were obtained by the Group of Doctor LI Jia in Shanghai Institute of Materia Medica by using the baculovirus expression system and purifying. • Substrate: HDAC1, 3, 4: Ac-Lys-Tyr-Lys (Ac)-AMC; • HDAC6: Boc-lys (Ac)-AMC • ∠All were purchased from GL Biochem (Shanghai) Ltd.;
(§2) Enzyme activity was measured in 96-well or 384-well flat-bottom microplates using fluorescence detection. […] The initial reaction speed was calculated by detecting the changes of the fluorescence signal over time.
(§3) Sample treatment: The sample was dissolved in DMSO and stored at low temperature.
(§4) Illustration about the data processing and the result: In the first screening, the activity of the sample was tested at a single concentration, e.g., 20 μg/ml. […] The bottom and top of the fitting curve were set to 0 and 100 for the most inhibitor screening models.

[4] = molecular target: T1, Human source HDAC6 (Homo sapiens, UniProt Q9UBN7); experiment: Inhibition activity against histone deacetylase 6 (fluorescence, AMC substrate); format: biochemical; details: for IC50: IC50 ± SD/SE
T1 sequence (Q9UBN7 1-1215): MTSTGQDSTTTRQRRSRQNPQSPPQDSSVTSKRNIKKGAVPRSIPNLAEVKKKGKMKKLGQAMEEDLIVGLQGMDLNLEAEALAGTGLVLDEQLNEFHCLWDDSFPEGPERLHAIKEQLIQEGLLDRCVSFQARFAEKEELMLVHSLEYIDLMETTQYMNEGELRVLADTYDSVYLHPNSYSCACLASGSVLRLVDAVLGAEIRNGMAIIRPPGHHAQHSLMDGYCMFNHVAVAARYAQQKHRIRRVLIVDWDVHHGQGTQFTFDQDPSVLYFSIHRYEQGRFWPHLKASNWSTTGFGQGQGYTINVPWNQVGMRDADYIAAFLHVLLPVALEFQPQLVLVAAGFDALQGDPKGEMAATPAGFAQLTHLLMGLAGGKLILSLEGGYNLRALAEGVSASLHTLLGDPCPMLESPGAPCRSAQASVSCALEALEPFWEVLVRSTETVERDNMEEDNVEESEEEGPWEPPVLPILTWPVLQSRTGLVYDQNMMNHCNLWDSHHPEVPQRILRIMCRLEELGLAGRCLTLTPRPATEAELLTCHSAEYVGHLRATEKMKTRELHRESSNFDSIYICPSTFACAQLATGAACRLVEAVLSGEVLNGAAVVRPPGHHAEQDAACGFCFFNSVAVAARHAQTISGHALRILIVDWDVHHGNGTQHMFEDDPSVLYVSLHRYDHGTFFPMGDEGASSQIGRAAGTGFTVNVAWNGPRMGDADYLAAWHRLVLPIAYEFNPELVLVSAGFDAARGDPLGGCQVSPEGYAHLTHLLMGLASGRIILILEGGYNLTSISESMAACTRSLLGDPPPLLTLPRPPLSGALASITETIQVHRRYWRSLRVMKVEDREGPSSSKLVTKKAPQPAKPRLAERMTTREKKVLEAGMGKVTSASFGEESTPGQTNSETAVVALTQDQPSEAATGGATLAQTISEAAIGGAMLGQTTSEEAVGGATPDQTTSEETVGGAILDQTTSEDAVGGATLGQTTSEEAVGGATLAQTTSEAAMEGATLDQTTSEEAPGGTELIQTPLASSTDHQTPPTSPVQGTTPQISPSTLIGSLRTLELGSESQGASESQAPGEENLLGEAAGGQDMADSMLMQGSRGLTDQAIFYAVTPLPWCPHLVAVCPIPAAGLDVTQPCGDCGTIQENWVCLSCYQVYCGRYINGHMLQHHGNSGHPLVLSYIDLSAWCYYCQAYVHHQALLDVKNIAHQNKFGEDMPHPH
Protocol: as §1, §2, §3, §4

[5] = molecular target: Human source HDAC3 (Homo sapiens, UniProt O15379); experiment: Inhibition activity against histone deacetylase 3 (fluorescence, AMC substrate); format: biochemical; details: IC50 ± SD/SE
Human source HDAC3, sequence (O15379 whole entry): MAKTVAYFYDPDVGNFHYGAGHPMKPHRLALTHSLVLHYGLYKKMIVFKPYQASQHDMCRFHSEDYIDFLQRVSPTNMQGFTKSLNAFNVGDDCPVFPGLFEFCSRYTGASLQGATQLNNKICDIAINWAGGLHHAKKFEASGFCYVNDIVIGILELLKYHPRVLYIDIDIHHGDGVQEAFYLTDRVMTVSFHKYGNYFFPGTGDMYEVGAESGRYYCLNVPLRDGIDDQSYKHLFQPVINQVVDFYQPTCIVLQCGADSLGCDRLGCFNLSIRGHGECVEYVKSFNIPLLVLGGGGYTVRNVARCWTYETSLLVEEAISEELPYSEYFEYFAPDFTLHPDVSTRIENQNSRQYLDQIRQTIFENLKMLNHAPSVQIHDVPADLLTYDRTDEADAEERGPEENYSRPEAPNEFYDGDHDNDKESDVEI
Human source HDAC3, sequence (Q9Y618 395-489 partner limits assumed): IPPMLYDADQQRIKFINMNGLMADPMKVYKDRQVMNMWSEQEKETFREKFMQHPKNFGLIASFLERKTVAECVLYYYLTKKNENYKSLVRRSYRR
Protocol: as §1, §2, §3, §4

[6] = molecular target: Human source HDAC1 (Homo sapiens, UniProt Q13547); experiment: Inhibition activity against histone deacetylase 1 (fluorescence, AMC substrate); format: biochemical; details: IC50 ± SD/SE
Human source HDAC1, sequence (Q13547 whole entry): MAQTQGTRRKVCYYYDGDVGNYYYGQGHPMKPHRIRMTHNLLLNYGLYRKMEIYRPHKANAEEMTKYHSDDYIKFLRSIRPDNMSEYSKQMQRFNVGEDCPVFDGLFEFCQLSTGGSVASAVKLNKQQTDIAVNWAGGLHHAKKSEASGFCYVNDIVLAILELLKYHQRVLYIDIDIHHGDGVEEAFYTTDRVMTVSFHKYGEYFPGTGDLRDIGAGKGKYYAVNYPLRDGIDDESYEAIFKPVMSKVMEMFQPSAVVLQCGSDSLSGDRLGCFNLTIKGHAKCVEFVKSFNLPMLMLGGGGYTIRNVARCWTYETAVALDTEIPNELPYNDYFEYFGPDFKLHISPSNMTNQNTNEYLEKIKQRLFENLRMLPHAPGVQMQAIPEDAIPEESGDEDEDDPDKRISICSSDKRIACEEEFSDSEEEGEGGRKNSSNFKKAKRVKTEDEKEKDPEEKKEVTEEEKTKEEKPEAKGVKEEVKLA
Protocol: as §1, §2, §3, §4

[7] = IC50 ± SD/SE, read-out: IC50 HDAC4

Compound	IC50 [1]	IC50 [3, 7]	IC50 ([3]; read-out: IC50 against HDAC4)	activity against HDAC6 on changing trifluoroacetyl ketone to hydrazone [4]	IC50 [4]	IC50 [5]	IC50 [6]	incidence of EAE model mice ([2]; 10 mg/kg twice a day, intragastric)	therapeutic effect on the clinical symptoms of EAE model mice ([2]; 10 mg/kg twice a day, intragastric, clinical score (the FIGURE))	Incidence number/total number ([2]; EAE mice, 10 mg/kg twice a day, intragastric)	disease severity versus solvent control group ([2]; P<0.01)	increase of activity at the cellular level compared to CFH367-C ([1]; cell line 8266)
O=C(NCCCCC(=O)C(F)(F)F)c1nc(-c2nccs2)sc1C1CC1 [HD 1]	0.333 ± 0.011 µM	0.02 µM	~0.02 µM	–	–	–	–	Effectively Reduce the Incidence	good therapeutic effect	3/6	significantly lower	–
O=C(NCCCCC(=O)C(F)(F)F)c1nc(-c2nc3c(s2)CCCC3)sc1C1CC1 [HD 3]	0.24 ± 0.021 µM	0.02 µM	–	–	–	–	–	–	–	–	–	–
CC(C)Cc1sc(-c2nccs2)nc1C(=O)NCCCCC(=O)C(F)(F)F [HD 6]	0.457 ± 0.012 µM	0.04 µM	–	–	–	–	–	–	–	–	–	–
CC(=O)N/N=C(\CCCCNC(=O)c1nc(-c2nccs2)sc1C1CC1)C(F)(F)F [HD 37]	2.14 ± 0.022 µM	0.16 ± 0.01 µM	–	can be improved	0.08 ± 0.01 µM	0.35 µM	0.18 ± 0.03 µM	–	–	–	–	–
O=C(CO)N/N=C(/CCCCNC(=O)c1nc(-c2nccs2)sc1C1CC1)C(F)(F)F [HD 46]	0.117 µM	0.45 ± 0.03 µM	–	can be improved	0.35 ± 0.01 µM	0.4 ± 0.01 µM	0.5 ± 0.05 µM	–	–	–	–	about 10 times

More lines, main results first:

IC50 [1]	IC50 [3, 7]	IC50 ([3]; read-out: IC50 against HDAC4)	activity against HDAC6 on changing trifluoroacetyl ketone to hydrazone [4]	IC50 [4]	IC50 [5]	IC50 [6]	Compound	incidence of EAE model mice ([2]; 10 mg/kg twice a day, intragastric)	therapeutic effect on the clinical symptoms of EAE model mice ([2]; 10 mg/kg twice a day, intragastric, clinical score (the FIGURE))	Incidence number/total number ([2]; EAE mice, 10 mg/kg twice a day, intragastric)	disease severity versus solvent control group ([2]; P<0.01)	increase of activity at the cellular level compared to CFH367-C ([1]; cell line 8266)
–	0.04 µM	–	–	0.04 µM	0.05 µM	0.05 µM	CCc1sc(-c2nccs2)nc1C(=O)NCCCCC(=O)C(F)(F)F [HD 53]	–	–	–	–	–
–	0.07 µM	–	–	0.06 µM	0.06 µM	0.07 ± 0.01 µM	O=C(NCCCCC(=O)C(F)(F)F)c1nc(-c2nccs2)sc1Cc1ccccc1 [HD 54]	–	–	–	–	–
–	0.07 µM	–	–	0.02 µM	–	–	Cc1cnc(-c2nc(C(=O)NCCCCC(=O)C(F)(F)F)c(C3CC3)s2)s1 [HD 55]	–	–	–	–	–
